Source: patent US11366114B2, “Genetically encoded fluorescent sensors for detecting ligand bias and intracellular signaling through cAMP pathways” (MONTANA MOLECULAR LLC, priority 2013, dated 2022)

What was measured:
[1] = system: cAMP; test: Fluorescence response of cAMP sensors to isoproterenol in HEK 293 cells co-expressing the beta adrenergic receptor; assay type: cell-based, human; conditions: for Relative Change in Fluorescence: in response to isoproternol; for dF/F: relative fluorescence response to isoproternol
Protocol: To test the functionality of these 28 prototype sensors, each construct was co-expressed with the beta adrenergic receptor, which couples to the Gs signaling pathway when activated by isoproteronol, in HEK 293 cells, and the fluorescence measured as described below. Briefly, 96-well glass-bottom plates were coated with Poly-D-Lysine (Fisher Scientific, Pittsburgh, Pa.) and HEK 293 were seeded and cultured in EMEM (ATCC, Manassas, Va.) supplemented with 10% fetal bovine serum and Penicillin-Streptomycin at 37 […] and 30 ng of beta adrenergic receptor per well, using Lipofectamine 2000 Transfection Reagent (Life Technologies, Grand Island, N.Y.) according to the manufacturer's protocol, and incubated for 24-48 hours at 37° C. in 5% CO2.
Prior to screening transfected cells for fluorescence, he EMEM culture medium was removed and 1×DPBS added to each well. A Zeiss Axiovert S100TV inverted microscope equipped with computer controlled excitation/emission filter wheels, shutters, and a Qimaging Retiga Exi CCD camera (Surrey, BC Canada) was used to image cells at 25e A) supplemented with 10% fetal bovine serum and Penicillin-Streptomycin at 37hn filters were used to resolve the green fluorescence from the cAMP sensors. Cells were analyzed for increases or decreases in fluorescence intensity upon addition of isoproternol, DMSO, forskolin and IBMX. To analyze the image stacks, background fluorescence was defined as a region of the image that contained no cells. The average value of this region was subtracted frame by frame from the measurements of the mean pixel values of the fluorescent cells. Fluorescence intensity data was plotted and analyzed with IGOR (Wavemetrics, Oswego, Oreg.).
For transient expression and screening in an automated fluorescence plate reader, HEK 293T cells were cultured in Corning Co-Star Polystyrene 96-well plates coated with Poly-D-Lysine. HEK293T cells were plated at 35,000 cells/well in 100 μl growth medium per well without antibiotics so that the cells would be 90-95% confluent at the time of transfection (approximately 24 hours later). For each transfection (i.e. one well in a 96-well plate), 160 ng of plasmid DNA (120 ng sensor+40 ng receptor) was diluted in […] and then the mixture was replaced with fresh medium. Prior to scanning a plate on the Biotek Synergy Mx, EMEM culture medium was replaced with 250 μl of 1×DPBS per well. Plates were read at 25° C., using monochromators set to 488/20 nm excitation and 530/20 nm emission to resolve the green fluorescence from the cAMP sensor.

[2] = biological target: T1, G-protein coupled calcitonin receptor (Homo sapiens, UniProt P30988); test: Multiplexing of cAMP sensor with DAG sensor, calcitonin response curves; assay type: cell-based
T1 sequence (P30988 25-474): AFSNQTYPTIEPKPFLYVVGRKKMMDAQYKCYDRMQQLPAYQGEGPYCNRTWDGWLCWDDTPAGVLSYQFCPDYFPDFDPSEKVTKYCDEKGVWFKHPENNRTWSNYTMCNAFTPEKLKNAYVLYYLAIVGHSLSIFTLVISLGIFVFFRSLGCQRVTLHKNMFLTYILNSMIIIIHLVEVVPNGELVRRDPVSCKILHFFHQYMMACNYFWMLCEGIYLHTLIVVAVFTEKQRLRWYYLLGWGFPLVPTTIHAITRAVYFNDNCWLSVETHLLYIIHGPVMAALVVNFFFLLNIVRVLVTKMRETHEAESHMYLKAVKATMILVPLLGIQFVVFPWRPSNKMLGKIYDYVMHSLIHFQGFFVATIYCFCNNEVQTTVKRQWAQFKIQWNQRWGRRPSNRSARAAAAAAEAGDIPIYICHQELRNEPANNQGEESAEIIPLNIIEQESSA
Description: FIG. 6 Multiplexing of a cAMP biosensor based on a single fluorescent protein with a second biosensor of a different color. The G-protein coupled calcitonin receptor was stimulated with different amounts of calcitonin (shown on the X axis) to produce response curves for a red cAMP and a green DAG sensor. The Y axis on the right indicates cAMP response. The Y axis on the left indicates DAG response.
The ability of cAMP sensor proteins of the present invention to be multiplexed with other fluorescence based sensors was tested. Briefly, cells were co-transfected with expression vector expressing a cAMP sensor protein of the present invention comprising a green fluorescent protein, and a DAG biosensor comprising a red fluorescent protein. The cells were cultured, treated with isoptroterenol and the resulting fluorescence measured as described in Example 1A. The results of this study are show in FIG. 6.

[3] = HEK 293 cells, beta adrenergic receptor co-expressed

G-protein pathways stimulated (cAMP sensor / DAG sensor) ([2]; low concentrations)	Substance	Relative Change in Fluorescence [1] [%]	dF/F [1, 3]	dF/F ([1]; only cell of the column printed with %) [%]	G-protein pathways stimulated (cAMP sensor / DAG sensor) ([2]; higher concentrations)
	EPAC2gfpRAP1B: cpEGFP tethered between Epac2 and Rap1B; SEQID 27 in Table 1, SEQ ID NO: 28 in Table 3	26			
	EcpG9: prototype cAMP sensor, cpEGFP in Epac2 at L457; SEQID 30 in Table 1, SEQ ID NO: 31 in Table 3	13	13		
	EcpG10: prototype cAMP sensor, cpEGFP in Epac2 at R458; SEQID 25 in Table 1, SEQ ID NO: 26 in Table 3	−30	−30		
	EcpG12: prototype cAMP sensor, cpEGFP in Epac2 at V460; SEQID 11 in Table 1, SEQ ID NO: 12 in Table 3	−36	−36		
	EcpG13: prototype cAMP sensor, cpEGFP in Epac2 at E461; SEQID 28 in Table 1, SEQ ID NO: 29 in Table 3	−22	−22		
	EcpG15: prototype cAMP sensor, cpEGFP in Epac2 at N463; SEQID 17 in Table 1, SEQ ID NO: 18 in Table 3	34	34		
	EcpG18: prototype cAMP sensor, cpEGFP in Epac2 at A486; SEQID 32 in Table 1, SEQ ID NO: 33 in Table 3	12	12		
	EcpG22: prototype cAMP sensor, cpEGFP in Epac2 at V341; SEQID 31 in Table 1, SEQ ID NO: 32 in Table 3	−14		−14	
	EcpG23: prototype cAMP sensor, cpEGFP in Epac2 at L518; SEQID 29 in Table 1, SEQ ID NO: 30 in Table 3	−16	−16		
	EcpG24: prototype cAMP sensor, cpEGFP in Epac2 at A520; SEQID 33 in Table 1, SEQ ID NO: 34 in Table 3	−11	−11		
can stimulate just one G-protein pathway	calcitonin				two different G-protein pathways have been activated
